Here are results for 23 compounds from patent US5393761A, “3-arylindole compounds” (H. Lundbeck A/S, priority 1990, dated 1995).

Assay [1] deals with T1, serotonin S2 (5-HT2) receptors in rat cortex (Rattus norvegicus, UniProt P14842).
T1 construct: Serotonin S2 (5-HT2) receptors in membranes from rat; from tissue; host or cells: cerebral cortex membranes of male Wistar rats (printed 'conical tissue', a misprint for cortical)
Kind of assay: Inhibition of ^3H-ketanserin binding to serotonin S2 (5-HT2) receptors in rat cortex in vitro. The settings on record: 0.5 nM ^3H-ketanserin, rat cortex membranes, 37° C., 30 min. How it is done: Method in Hyttel, Pharmacology & Toxicology, 61, 126-129, 1987.
Male Wistar (Mol:Wist) rats (125-250 g) are sacrificed and conical tissue is dissected and weighed. The tissue is homogenized (Ultra Turrax, 10 sec.) in 10 ml of ice-cold 50 mM tris buffer pH 7.7 (at 25° C.). The centrifuge glassware used in this step has been rinsed by sonication for 10 min. in ethanol. The homogenate is centrifuged twice at 20,000 g for 10 min. at 4° C. with rehomogenization of the pellet in 10 ml ice-cold buffer. The final pellet is homogenized in 500 vol (w/v)ice-cold buffer.
Incubation tubes kept on ice in triplicate receive 100 μl Of drug solution in water (or water for total binding) and 2000 μl of tissue suspension (final tissue content corresponds to 4 mg original tissue). […] After incubation for 30 min. the samples are filtered under vacuum (0-50 mBar) through Whatman GF/F filters (25 mm). The tubes are rinsed with 5 ml ice-cold buffer which are then poured on the filters. Thereafter, the filters are washed with 2×5 ml of buffer. The filters are placed in counting vials and 4 ml of appropriate scintillation fluid (e.g. Picofluor ™15) are added. After shaking for 1 h and storage 2 hrs in the dark the content of radioactivity is determined by liquid scintillation counting. Specific binding is obtained by subtracting the nonspecific binding in the presence of 1 μM mianserin. For determination of the inhibition of binding five concentrations of drugs covering 3 decades are used.
The IC50 value is determined as the concentration at which the binding is 50% of the total binding in control samples minus the nonspecific binding in the presence of 1 μM mianserin.

For assay [2], the target named is dopamine D-2 receptors in rat corpus striatum (Rattus norvegicus, UniProt P61169). Kind of assay: Inhibition of ^3H-spiperone (spiroperidol) binding to dopamine D-2 receptors in rat corpus striatum in vitro. The settings on record: 0.5 nM ^3H-spiperone, rat striatum membranes, 37° C., 10 min. How it is done: By this method the inhibition by drugs of the binding of ^3 H-spiperone (=^3 H-spiroperidol) (0.5 nM) to dopamine D-2 receptors in membranes from rat corpus striatum is determined in vitro. Method and results in Hyttel & Larsen, J. Neurochem, 44, 1615-1622, 1985).
Male Wistar (Mol:Wistar) rats (125-250 g) are sacrificed and striatal tissue is dissected and weighed. The tissue is homogenized (Ultra Turrax, 10 sec.) in 10 ml of ice-cold 50 mM K-phosphate buffer pH 7.4 (at 25° C.). The homogenate is centrifuged twice at 20,000 g for 10 min. at 4° C. with rehomogenization of the pellet in 10 ml ice-cold buffer. The final pellet is homogenized in 1300 vol (w/v) ice-cold buffer.
Incubation tubes kept on ice in triplicate receive 100 μl of drug solution in water (or water for total binding) and 4000 μl Of tissue suspension (final tissue content corresponds to 3.08 mg original tissue). The binding experimental is initiated by addition of 100 μl of ^3 H-spiperone (final concentration 0.5 nM) and by placing the tubes in a 37° C. water bath. After incubation for 10 min. the samples are filtered under vacuum (0-50 mBar) through Whatman GF/F filters (25 mm). The tubes are rinsed with 5 ml ice-cold buffer which are then poured on the filters. Thereafter, the filters are washed with 2×5 ml of buffer. The filters are placed in counting vials and 4 ml of appropriate scintillation fluid (e.g. Picofluor ™15) are added. After shaking for 1 h and storage 2 hrs in the dark the content of radioactivity is determined by liquid scintillation counting. Specific binding is obtained by subtracting the nonspecific binding in the presence of 10 μM of 6,7-ADTN.
For determination of the inhibition of binding five concentrations of drugs covering 3 decades are used.
The measured cpm are plotted against drug concentration on semilogarithmic paper and the best fitting S-shaped curve is drawn. […] England, specific activity 15-25 Ci/mmol.

Structures can show the parent of a compound that is named as a salt.

As a reminder, the IC50 is the point on the concentration scale where inhibition reaches its midpoint. High values mean a need for much substance, low ones inhibition by little substance.

dopamine D-2 receptors in rat corpus striatum, sequence (P61169 whole entry): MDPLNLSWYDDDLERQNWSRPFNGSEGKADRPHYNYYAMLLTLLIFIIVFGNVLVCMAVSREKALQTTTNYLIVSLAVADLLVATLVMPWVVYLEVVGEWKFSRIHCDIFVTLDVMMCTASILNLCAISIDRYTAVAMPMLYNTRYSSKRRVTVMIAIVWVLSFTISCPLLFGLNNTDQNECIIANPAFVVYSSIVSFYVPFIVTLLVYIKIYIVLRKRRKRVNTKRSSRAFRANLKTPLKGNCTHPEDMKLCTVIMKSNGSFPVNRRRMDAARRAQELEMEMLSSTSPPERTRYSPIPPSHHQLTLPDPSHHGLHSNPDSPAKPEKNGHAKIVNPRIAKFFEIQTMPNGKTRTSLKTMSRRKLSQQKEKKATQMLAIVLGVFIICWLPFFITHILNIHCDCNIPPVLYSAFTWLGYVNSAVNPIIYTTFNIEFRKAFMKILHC
T1 sequence (P14842 whole entry): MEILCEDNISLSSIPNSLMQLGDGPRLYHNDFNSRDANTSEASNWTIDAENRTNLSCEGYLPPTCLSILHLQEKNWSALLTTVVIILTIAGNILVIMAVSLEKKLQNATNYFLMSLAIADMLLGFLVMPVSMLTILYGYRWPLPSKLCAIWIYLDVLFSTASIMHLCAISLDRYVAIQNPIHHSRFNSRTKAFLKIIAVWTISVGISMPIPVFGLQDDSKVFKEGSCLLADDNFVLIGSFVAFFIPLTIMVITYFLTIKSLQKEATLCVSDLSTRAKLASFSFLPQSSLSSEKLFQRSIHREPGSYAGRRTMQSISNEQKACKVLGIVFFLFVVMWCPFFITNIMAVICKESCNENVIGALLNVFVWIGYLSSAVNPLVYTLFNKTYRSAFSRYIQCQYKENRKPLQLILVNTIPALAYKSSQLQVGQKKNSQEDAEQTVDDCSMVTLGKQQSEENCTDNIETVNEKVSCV

`CN1CCN(CCN2CCC(n3cc(-c4ccc(F)cc4)c4ccc(Cl)cc43)CC2)C1=O` [Compound 4a, 6-Chloro-3-(4-fluorophenyl)-1-[1-[2-(3-methylimidazolidin-2-on-1-yl)ethyl]-4-piperidyl)-1H-indole, maleate]: the IC50 was 1.5 nM in assay [1] and 46 nM in assay [2].

For `O=C1NCCN1CCN1CCC(n2cc(-c3ccc(F)cc3)c3ccc(Cl)cc32)CC1` [Compound 4b, 6-Chloro-3-(4-fluorophenyl)-1-[1-[2-(imidazolidin-2-on-1-yl)ethyl]-4-piperidyl]-1H-indole], the IC50 in assay [1] worked out at 1.9 nM; in assay [2], 37 nM.

Regarding `CC(C)N1CCN(CCN2CCC(n3cc(-c4ccc(F)cc4)c4ccc(Cl)cc43)CC2)C1=O` [Compound 4c, 6-Chloro-3-(4-fluorophenyl)-1-[1-[2-[3-(2-propyl)imidazolidin-2-on-1-yl]ethyl]-4-piperidyl]-1H-indole, hydrochloride, hydrate], the figures for the IC50 in assay [1] and in assay [2] were 3.7 nM and 42 nM, respectively.

As for `O=C1NCCN1CCN1CCC(n2cc(-c3ccc(F)cc3)c3cc(Cl)ccc32)CC1` [Compound 4d, 5-Chloro-3-(4-fluorophenyl)-1-[1-[2-(imidazolidin-2-on-1-yl)ethyl]-4-piperidyl]-1H-indole], the IC50 in assay [1] amounted to 5.7 nM; in assay [2], 410 nM.

Take `CC(C)N1CCN(CCN2CCC(n3cc(-c4ccc(F)cc4)c4cc(Cl)ccc43)CC2)C1=O` [Compound 4e]: the values for the IC50 in assay [1] and in assay [2] were 5.4 nM and 570 nM, respectively.

As for `CN1CCN(CCN2CCC(n3cc(-c4ccc(F)cc4)c4cc(Cl)ccc43)CC2)C1=O` [Compound 4f, 5-Chloro-3-(4-fluorophenyl)-1-[1-[2-(3-methylimidazolidin-2-on-1-yl)ethyl]-piperidyl]-1H-indole], the results for the IC50 in assay [1] and in assay [2] were 1.4 nM and 550 nM, respectively.

With `Cc1ccc2c(c1)c(-c1ccc(F)cc1)cn2C1CCN(CCN2CCNC2=O)CC1` [Compound 4g, 3-(4-Fluorophenyl)-1-[1-[2-(imidazolidin-2-on-1-yl)ethyl]-4-piperidyl]-5-methyl-1H-indole], the IC50 in assay [1] stood at 1.6 nM; in assay [2] it was 920 nM.

For the compound `Cc1ccc2c(c1)c(-c1ccc(F)cc1)cn2C1CCN(CCN2CCN(C(C)C)C2=O)CC1` [Compound 4h, 3-(4-Fluorophenyl)-5-methyl-1-[1-[2-[3-(2-propyl)imidazolidin-2-on-1-yl]ethyl]-4-piperidyl)-1H-indole, oxalate], the figures for the IC50 in assay [1] and in assay [2] were 2.7 nM and 1100 nM, respectively.

With `Cc1ccc2c(c1)c(-c1ccc(F)cc1)cn2C1CCN(CCN2CCN(C)C2=O)CC1` [Compound 4i, 3-(4-Fluorophenyl)-5-methyl-1-[1-[2-(3-methylimidazolidin-2-on-1-yl)ethyl]-4-piperidyl]-1H-indole, fumarate], the IC50 in assay [1] was determined as 1.4 nM; in assay [2], 680 nM.

Take `Cc1ccc2c(c1)c(-c1ccc(F)cc1)cn2C1CCN(CCN2CCCC2=O)CC1` [Compound 4j, 3-(4-Fluorophenyl)-5-methyl-1-[1-[2-(2-pyrrolidinon-1-yl)ethyl]-4-piperidyl]-1H-indole, oxalate]: the IC50 in assay [1] came to 4.5 nM; in assay [2] it was 1200 nM.

For the compound `O=C1NCCN1CCN1CCC(n2cc(-c3ccc(F)cc3)c3ccccc32)CC1` [Compound 4k, 3-(4-Fluorophenyl)-1-[1-[2-(imidazolidin-2-on-1-yl)ethyl]-4-piperidyl]-1H-indole], the IC50 was found to be 3.1 nM in assay [1] and 120 nM in assay [2].

For the compound `CC(C)N1CCN(CCN2CCC(n3cc(-c4ccc(F)cc4)c4ccccc43)CC2)C1=O` [Compound 4l, 3-(4-Fluorophenyl)-1-[1-[2-[3-(2-propyl)imidazolidin-2-on-1-yl]ethyl]-4-piperidyl]-1H-indole, hydrochloride, hydrate], the IC50 in assay [1] was 3.3 nM; in assay [2] it was 74 nM.

Consider `O=C1NCCN1CCN1CCC(n2cc(-c3ccc(F)cc3)c3cc(F)ccc32)CC1` [Compound 4m, 5-Fluoro-3-(4-fluorophenyl)-1-[1-[2-(imidazolidin-2-on-1-yl)ethyl]-4-piperidyl]-1H-indole], for which the values for the IC50 in assay [1] and in assay [2] were 3.2 nM and 250 nM, respectively.

As for `CC(C)N1CCN(CCN2CCC(n3cc(-c4ccc(F)cc4)c4cc(F)ccc43)CC2)C1=O` [Compound 4n, 5-Fluoro-3-(4-fluorophenyl)-1-[1-[2-[3-(2-propyl)imidazolidin-2-on-1-yl]ethyl]-4-piperidyl]-1H-indole], the IC50 in assay [1] amounted to 3.1 nM; in assay [2], 190 nM.

Turning to `O=C1OCCN1CCN1CCC(n2cc(-c3ccc(F)cc3)c3cc(F)ccc32)CC1` [Compound 4o, 5-Fluoro-3-(4-fluorophenyl)-1-[1-[2-(oxazolidin-2-on-3-yl)ethyl]-4-piperidyl]-1H-indole], the IC50 in assay [1] came to 37 nM; in assay [2], 790 nM.

Take `O=C1NCCN1CCN1CCC(n2cc(-c3ccccc3)c3cc(Cl)ccc32)CC1` [Compound 4p, 5-Chloro-3-phenyl-1-[1-[2-(imidazolidin-2-on-1-yl)ethyl]-4-piperidyl]-1H-indole]: the IC50 came to 29 nM in assay [1] and 2800 nM in assay [2].

Consider `CC(C)N1CCN(CCN2CCC(n3cc(-c4ccccc4)c4cc(Cl)ccc43)CC2)C1=O` [Compound 4q, 5-Chloro-3-phenyl-1-[1-[2-[3-(2-propyl)imidazolidin-2-on-1-yl]ethyl]-4-piperidyl)-1H-indole], for which the IC50 in assay [1] amounted to 25 nM; in assay [2], 3000 nM.

Turning to `O=C1NCCN1CCN1CCC(N2CC(c3ccc(F)cc3)c3cc(F)ccc32)CC1` (stereo not shown) [Compound 4r, 2,3-Dihydro-3-(4-fluorophenyl)-1-[1-[2-(imidazolidin-2-on-1-yl)ethyl]-4-piperidyl]-5-fluoro-1H-indole], the IC50 in assay [1] was found to be 3.4 nM; in assay [2], 230 nM.

On to `Cc1ccc2c(c1)c(-c1ccc(F)cc1)cn2C1CCN(C(C)C)CC1` [Compound 4s, 3-(4-Fluorophenyl)-5-methyl-1-[1-(2-propyl)-4-piperidyl]-lH-indole, maleate], for which the values for the IC50 in assay [1] and in assay [2] were 12 nM and 330 nM, respectively.

Turning to `O=C1NCCN1CCN1CCC(n2nc(-c3ccc(F)cc3)c3ccc(Cl)cc32)CC1` [Compound 4t, 6-Chloro-3-(4-fluorophenyl)-1-[1-[2-(imidazolidin-2-on-1-yl)ethyl]-4-piperidyl]-1H-indazole], the IC50 worked out at 38 nM in assay [1] and 1900 nM in assay [2].

For `O=C1NCCN1CCN1CCC(n2nc(-c3ccc(F)cc3)c3cc(C(F)(F)F)ccc32)CC1` [Compound 4u, 3-(4-Fluorophenyl)-1-[1-[2-(imidazolidin-2-on-1-yl)ethyl]-4-piperidyl]-5-trifluoromethyl-1H-indazole], the results for the concentration for half-maximal inhibition (IC50) in assay [1] and in assay [2] were 220 nM and 42000 nM, respectively.

Consider `CC(C)N1CCN(CCN2CCC(n3cc(-c4ccc(F)cc4)c4cc(C(F)(F)F)ccc43)CC2)C1=O` [Compound 4v, 3-(4-Fluorophenyl)-1-[1-[2-[3-(2-propyl)imidazolidin-2-on-1-yl]ethyl]-4piperidyl]-5-trifluoromethyl-1H-indole], for which the IC50 in assay [1] was 11 nM; in assay [2], > 1000 nM.

Consider `O=C1NCCN1CCN1CCC(n2c(Br)c(-c3ccc(F)cc3)c3ccccc32)CC1` [Compound 4x, 2-Bromo-3-(4-fluorophenyl)-1-[1-[2-(imidazolidin-2-on-1-yl)ethyl]-4-piperidyl]-1H-indole], for which the IC50 in assay [1] came out at 11 nM; in assay [2] it was 650 nM.
